Read-outs that look alike come from different tables or passages of the source.
Experiment: Pharmacokinetics of AT and NT in healthy volunteers after a single dose of 25 mg amitriptyline
Type: in vivo, human
Settings: human, plasma, po, 25 mg, single oral 25 mg AT; for Cmax: read-out: Cmax
From the text: In order to enrich the study sample with the less frequent functionally deficient OCT1 variants, participants were selected based on OCT1 genotype from an internal database at the Institute of Clinical Pharmacology of the University Medical Center Göttingen. All volunteers who are listed in the internal database had agreed to it and the database was approved by the ethics committee of the University of Göttingen. […] Additional subjects with heterozygous genotypes were included to provide a better understanding of the effects of specific variants and the mode of inheritance. All volunteers gave their written informed consent before participation in the study. The study was approved by the ethics committee of the University of Göttingen and the German Federal Institute for Drugs and Medical Devices (BfArM). It was registered at the clinical trials databases Clinicaltrials.gov (NCT02054299) and EudraCT (number 2012-003546-33). […] Volunteers who underwent regular drug treatments other than oral contraceptives or who suffered from any relevant chronic illness, as well as pregnant or lactating women, were not included. All subjects were healthy according to a detailed medical history, medical examination, electrocardiogram, urine status and clinical chemistry, and haematology parameters (sodium, potassium, total bilirubin, aspartate aminotransferase, alanine-aminotransferase, creatinine, C-reactive protein, thyroid-stimulating hormone, haemoglobin, erythrocyte, thrombocyte, and leucocyte counts). […] After centrifugation (13,000 rpm, 15 min, room temperature), two-thirds of the supernatant were transferred to a new reaction tube and evaporated at 40°C under nitrogen flow. The residue was reconstituted under shaking in 0.1% methanoic acid and briefly centrifuged before quantification using a Nexera UHPLC system (Shimadzu, Kyoto, Japan) coupled to an API 4000 tandem mass spectrometer (AB Sciex, Darmstadt, Germany). […] PerkinElmer, Rodgau, Germany) with a Phenomenex C18 pre-column (4 × 2 mm, Phenomenex, Aschaffenburg, Germany). […] The lower limit of quantification was 0.5 ng/ml for AT and 0.1 ng/ml for NT. […] The mass spectrometry detection parameters are listed in Supplementary Table S1. For the study in healthy volunteers, the primary endpoints were the AUCs of plasma AT and NT concentrations. Secondary endpoints were the other pharmacokinetic parameters of AT and NT, as well as heart rate, blood pressure, pupil size effects, and possible adverse events (headache, fatigue, visual or hearing impairments, restlessness, nausea, dizziness, dry mouth, tremor, as well as sensations of hypothermia and heart palpitations determined using a visual analogue scale test). Pharmacokinetic parameters were calculated by non-compartmental analysis using Phoenix 64 WinNonlin version 6.3 (Certara Inc., Princeton, NJ, United States). AUCinf of AT was calculated from the time of dosing using the linear/log trapezoidal rule and extrapolated to infinity based on the last predicted concentration and using the terminal elimination rate constant (lambda z). AUC of NT was calculated from the time of dosing until the last measurement at 48 h using the linear/log trapezoidal rule, as a decline in NT concentrations was not observed in some subjects and extrapolation to infinity thus not possible.

[1] = both sexes, healthy volunteers, 0 active OCT1 alleles (n = 12)
[2] = both sexes, healthy volunteers, 1 active OCT1 allele (n = 9)
[3] = both sexes, healthy volunteers, 2 active OCT1 alleles (n = 14)
[4] = both sexes, healthy volunteers, CYP2C19 activity score 1 (n = 5), mean
[5] = both sexes, healthy volunteers, CYP2C19 activity score 1.5 (n = 2), mean
[6] = both sexes, healthy volunteers, CYP2C19 activity score 2 (n = 16), mean
[7] = both sexes, healthy volunteers, CYP2C19 activity score 2.5 (n = 10), mean
[8] = both sexes, healthy volunteers, CYP2D6 activity 0 (n = 3), mean
[9] = both sexes, healthy volunteers, CYP2D6 activity 0.5 (n = 2), mean
[10] = both sexes, healthy volunteers, CYP2D6 activity 1 (n = 10), mean
[11] = both sexes, healthy volunteers, CYP2D6 activity 1.5 (n = 6), mean
[12] = both sexes, healthy volunteers, CYP2D6 activity 2 (n = 11), mean
[13] = both sexes, healthy volunteers, CYP2D6 activity 2.5 (n = 1), mean
[14] = both sexes, healthy volunteers, CYP2D6 activity 3 (n = 2), mean
[15] = healthy volunteers, CYP2C19 activity score 0 (n = 1), mean
[16] = healthy volunteers, CYP2C19 activity score 3 (n = 1), mean

Compound: CNCCC=C1c2ccccc2CCc2ccccc21 [Nortriptyline, nortriptyline]
- AUC(0-t) (both sexes, 35 healthy volunteers, read-out: AUC48h (range over all volunteers)): 39.3 to 284 ng·h/mL
- AUC(0-t) (both sexes, healthy volunteers, 0 active OCT1 alleles (n = 12), read-out: AUC48h): 90.2 ± 27.1 ng·h/mL
- Cmax [1]: 2.7 ± 0.7 ng/mL
- AUC(0-t) (both sexes, healthy volunteers, 1 active OCT1 allele (n = 9), read-out: AUC48h): 88.3 ± 32.2 ng·h/mL
- Cmax [2]: 2.6 ± 0.9 ng/mL
- AUC(0-t) (both sexes, healthy volunteers, 2 active OCT1 alleles (n = 14), read-out: AUC48h): 126 ± 63.5 ng·h/mL
- Cmax [3]: 3.4 ± 1.4 ng/mL
- AUC(0-t) (both sexes, healthy volunteers, CYP2C19 activity score 1 (n = 5), mean, read-out: AUC48h): 69.4 ng·h/mL
- Cmax [4]: 2.1 ng/mL
- AUC(0-t) (both sexes, healthy volunteers, CYP2C19 activity score 1.5 (n = 2), mean, read-out: AUC48h): 123 ng·h/mL
- Cmax [5]: 3.5 ng/mL
- AUC(0-t) (both sexes, healthy volunteers, CYP2C19 activity score 2 (n = 16), mean, read-out: AUC48h): 103 ng·h/mL
- Cmax [6]: 3 ng/mL
- AUC(0-t) (both sexes, healthy volunteers, CYP2C19 activity score 2.5 (n = 10), mean, read-out: AUC48h): 108 ng·h/mL
- Cmax [7]: 3.1 ng/mL
- AUC(0-t) (both sexes, healthy volunteers, CYP2D6 activity 0 (n = 3), mean, read-out: AUC48h): 145 ng·h/mL
- Cmax [8]: 3.48 ng/mL
- AUC(0-t) (both sexes, healthy volunteers, CYP2D6 activity 0.5 (n = 2), mean, read-out: AUC48h): 222 ng·h/mL
- Cmax [9]: 5.54 ng/mL
- AUC(0-t) (both sexes, healthy volunteers, CYP2D6 activity 1 (n = 10), mean, read-out: AUC48h): 104 ng·h/mL
- Cmax [10]: 2.94 ng/mL
- AUC(0-t) (both sexes, healthy volunteers, CYP2D6 activity 1.5 (n = 6), mean, read-out: AUC48h): 98.3 ng·h/mL
- Cmax [11]: 2.79 ng/mL
- AUC(0-t) (both sexes, healthy volunteers, CYP2D6 activity 2 (n = 11), mean, read-out: AUC48h): 81.8 ng·h/mL
- Cmax [12]: 2.57 ng/mL
- AUC(0-t) (both sexes, healthy volunteers, CYP2D6 activity 2.5 (n = 1), mean, read-out: AUC48h): 89.1 ng·h/mL
- Cmax [13]: 3.11 ng/mL
- AUC(0-t) (both sexes, healthy volunteers, CYP2D6 activity 3 (n = 2), mean, read-out: AUC48h): 71.1 ng·h/mL
- Cmax [14]: 2.49 ng/mL
- Tmax [1]: 6.2 ± 1.4 h
- half-life [1]: 46.1 ± 24.4 h
- Tmax [2]: 6.7 ± 1.3 h
- half-life [2]: 56.4 ± 31.3 h
- Tmax [3]: 11.5 ± 8.7 h
- half-life [3]: 40.1 ± 38.2 h
- Tmax [4]: 6 h
- half-life [4]: 48.2 h
- Tmax [5]: 14.1 h
- half-life [5]: 25.1 h
- Tmax [6]: 6.6 h
- half-life [6]: 47.7 h
- Tmax [7]: 9.9 h
- half-life [7]: 44.1 h
- Tmax [8]: 18.9 h
- half-life [8]: 92 h
- Tmax [9]: 15.5 h
- half-life [9]: 105 h
- Tmax [10]: 6.2 h
- half-life [10]: 64.2 h
- Tmax [11]: 7 h
- half-life [11]: 51.9 h
- Tmax [12]: 7.7 h
- half-life [12]: 29.9 h
- Tmax [13]: 6 h
- half-life [13]: 25 h
- Tmax [14]: 6 h
- half-life [14]: 26.9 h
- AUC(0-t) (both sexes, healthy volunteers, OCT1 genotype *1 / *1 (n 14), mean ± standard deviation, read-out: AUC48h): 126 ± 63 ng·h/mL
- AUC(0-t) (both sexes, healthy volunteers, OCT1 genotype *1 / *2 (n 3), mean ± standard deviation, read-out: AUC48h): 115 ± 24 ng·h/mL
- AUC(0-t) (both sexes, healthy volunteers, OCT1 genotype *1 / *3 (n 4), mean ± standard deviation, read-out: AUC48h): 78 ± 34 ng·h/mL
- AUC(0-t) (both sexes, healthy volunteers, OCT1 genotype *1 / *4 (n 2), mean ± standard deviation, read-out: AUC48h): 69 ± 17 ng·h/mL
- AUC(0-t) (both sexes, healthy volunteers, OCT1 genotype *2 / *2 (n 3), mean ± standard deviation, read-out: AUC48h): 109 ± 45 ng·h/mL
- AUC(0-t) (both sexes, healthy volunteers, OCT1 genotype *2 / *3 (n 4), mean ± standard deviation, read-out: AUC48h): 90 ± 27 ng·h/mL
- AUC(0-t) (both sexes, healthy volunteers, OCT1 genotype *2 / *5 (n 1), read-out: AUC48h): 83 ng·h/mL
- AUC(0-t) (both sexes, healthy volunteers, OCT1 genotype *3 / *3 (n 3), mean ± standard deviation, read-out: AUC48h): 77 ± 11 ng·h/mL
- AUC(0-t) (both sexes, healthy volunteers, OCT1 genotype *3 / *4 (n 1), read-out: AUC48h): 78 ng·h/mL
- AUC(0-t) (healthy volunteers, CYP2C19 activity score 0 (n = 1), mean, read-out: AUC48h): 39.3 ng·h/mL
- Cmax [15]: 1.05 ng/mL
- AUC(0-t) (healthy volunteers, CYP2C19 activity score 3 (n = 1), mean, read-out: AUC48h): 284 ng·h/mL
- Cmax [16]: 6.5 ng/mL
- Tmax [15]: 6 h
- half-life [15]: 106 h
- Tmax [16]: 24.9 h
- half-life [16]: 145 h

From paper PMC8175851, “Effects of Genetic Polymorphism in CYP2D6, CYP2C19, and the Organic Cation Transporter OCT1 on Amitriptyline Pharmacokinetics in Healthy Volunteers and Depressive Disorder Patients” (Frontiers in Pharmacology, 2021)
